This note sets out measurements from BindingDB's records for doi:10.1016/j.bmcl.2019.06.040 (Shenyang Pharmaceutical University, 2019).

This series deals with T1, Cytochrome P450 11B2, mitochondrial (Homo sapiens, UniProt P19099).
T1 sequence (P19099 whole entry): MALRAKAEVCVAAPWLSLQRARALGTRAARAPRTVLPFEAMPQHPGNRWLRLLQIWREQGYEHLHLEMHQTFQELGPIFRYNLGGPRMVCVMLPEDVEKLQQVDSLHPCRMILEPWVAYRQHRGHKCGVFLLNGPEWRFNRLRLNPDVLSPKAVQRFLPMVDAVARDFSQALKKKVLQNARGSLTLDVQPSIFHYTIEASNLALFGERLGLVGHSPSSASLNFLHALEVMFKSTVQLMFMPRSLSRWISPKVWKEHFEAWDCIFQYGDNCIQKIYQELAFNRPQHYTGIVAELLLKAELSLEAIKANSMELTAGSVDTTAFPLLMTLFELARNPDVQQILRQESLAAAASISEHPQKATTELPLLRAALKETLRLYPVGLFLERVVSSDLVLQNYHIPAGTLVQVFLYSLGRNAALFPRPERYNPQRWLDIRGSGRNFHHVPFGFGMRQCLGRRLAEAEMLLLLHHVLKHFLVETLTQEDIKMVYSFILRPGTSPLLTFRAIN
Description: Inhibition of CYP11B2 (unknown origin).
For `Cc1nnc2n1-c1cc(F)c(-c3cccnc3)cc1CC2`, the IC50 turned out to be 131 nM.

`Fc1cc(-c2cccnc2)cc2c1-n1cnnc1CC2` came in with an IC50 of 172 nM.

The compound `Fc1cc2c(cc1-c1cccnc1)CCc1nncn1-2` registered an IC50 of 244 nM.

Compound `Cc1nnc2n1-c1c(F)cc(-c3cccnc3)cc1CC2` showed an IC50 of 63 nM.
